Experimental data published in ChEMBL document CHEMBL1158103, “Theopapuamide, a cyclic depsipeptide from a Papua New Guinea lithistid sponge Theonella swinhoei” (J Nat Prod, 2006).
pEC50: −log10 of the molar value.

Tests used:
[1] = Cytotoxicity against human CEM-TART cells after 72 hrs by MTT assay; type: cell-based
[2] = Cytotoxicity against human HCT 116 cells after 48 hrs by MTT assay; type: functional, cell-based; details: HCT-116, 48 h

SMILES: CCC(C)CC(C)C(O)C(C)C(=O)N[C@H](CN)C(=O)NC(C(O)C(O)C(=O)N[C@H](C(=O)N[C@H]1C(=O)N[C@H]([C@@H](C)O)C(=O)N[C@H](CCCN)C(=O)N[C@@H](CC(C)C)C(=O)N(C)[C@@H](CCC(N)=O)C(=O)N[C@@H]([C@@H](OC)C(N)=O)C(=O)N[C@H](CC(N)=O)C(=O)N(C)[C@@H](CC(C)C)C(=O)O[C@@H]1C)[C@H](C)C(C)C(N)=O)C(C)(C)O (some centres not stated) [THEOPAPUAMIDE]
- pEC50 [1]: 6.30
- pEC50 [2]: 6.05
